Source: publication PMC3774141 (Bioorganic & medicinal chemistry letters, 2013)

Tests used:
[1] = test system: human non-small-cell lung carcinoma (A549); conditions: read-out: IC50 A549; values taken from the literature for comparison; cited from earlier work
[2] = test system: human cervix carcinoma (HeLa); conditions: read-out: IC50 HeLa; values taken from the literature for comparison; cited from earlier work
[3] = test system: breast adenocarcinoma (MCF-7); conditions: read-out: IC50 MCF-7; values taken from the literature for comparison; cited from earlier work
[4] = test system: human cancer cell lines (HeLa, A549, H1299, MCF-7); test: antiproliferative activity, cancer cell lines tested; format: cell-based; conditions: read-out: IC50 against the cancer cell lines tested
[5] = test system: tubulin; test: inhibition of tubulin polymerization; format: biochemical

IC50 [4] [µM]	SMILES	IC50 [1] [µM]	IC50 [2] [µM]	IC50 [3] [µM]	inhibitors of tubulin polymerization (result in words) [5]
	COc1ccc(-c2nnnn2-c2cc(OC)c(OC)c(OC)c2)cc1 [Compound 5f]	0.222 ± 0.059	0.0026	0.0385 ± 0.0058	
> 45	COc1ccc(-c2nnnn2-c2cc(OC)c(OC)c(OC)c2O)cc1 [Compound 5b]				inactive
> 45	COc1ccc(-c2nnnn2-c2cc(OC)c(OC)c(OC)c2O)c(O)c1 [Compound 5a]				inactive
